In patent publication US20160115540A1, “PRODRUGS AND DRUGS” (Biogen MA Inc., priority 2013, published 2016):
Where a name gives a salt, the structure may show the parent alone.

System: cortex
Test: Transcriptional profiling on Affymetrix GeneChips, single dose, naïve mice: cortex
Format: in vivo, C57BL/6 mice
Settings: for Number of differentially expressed genes identified: Cortex: Naïve, Single Dose
Method: Treated mice were sacrificed at 2, 7, or 12 hours. Tissues (liver, spleen, kidney, jejunum, cortex, hippocampus, striatum and whole blood) were collected and analyzed by transcriptional profiling on mouse Affymetrix GeneChips.
Tissues (liver, spleen, kidney, jejunum, cortex, hippocampus, striatum and whole blood) were collected and analyzed by transcriptional profiling on mouse Affymetrix GeneChips.
Animals were exposed to CO2 and whole blood collected via cardiac puncture. Two 100 μl aliquots of whole blood were collected in 1.5 mL microcentrifuge tubes and snap frozen in liquid nitrogen. Peripheral (liver, spleen, kidney and jejunum) and CNS brain (cerebellum, hippocampus, striatum and cortex) tissues were harvested and snap frozen in liquid nitrogen, with special care taken to collect tissues of similar size and from the same location. All samples were stored at −80° C. until RNA extraction was conducted.
For RNA preparation, frozen tissues were placed in 2 mL RNAse-free 96-well blocks with 1.5 mL QIAzol Lysis Reagent (QIAgen) and a 3.2 mm stainless steel bead (BioSpec Products, Bartlesville, Okla.). Tissues were disrupted for four cycles of 45 seconds in a Mini-Beadbeater (Biospec Products). RNA was extracted in chloroform and the aqueous phase was mixed with an equal volume of 70% ethanol. Extracted RNA was applied to RNeasy 96 plates and purified by the spin method according to the manufacturer's protocol (RNeasy 96 Universal Tissue Protocol, QIAgen, Hilden Germany).
Automated sample amplifications and biotin labelings were carried out using the NuGEN Ovation RNA Amplification system V2 (Cat #3100), Ovation WB reagent (Cat #1300) and Encore Biotin module (Cat #4200) (NuGEN Technologies, Inc, San Carlos, Calif.) according to manufacturer's recommendations using an Arrayplex automated liquid handler (Beckman Coulter, Indianapolis, Ind.). Two micrograms of biotin labeled sscDNA probe were hybridized to Affymetrix GeneChip Affymetrix HT_MG-430_PM plate arrays with modified conditions as described in Allaire et al. Washing and staining of the hybridized arrays were completed as described in the GeneChip Expression analysis technical manual for HT plate arrays using the Genechip® Array Station (Affymetrix, Santa Clara, Calif.) with modifications as described in Allaire et al. The processed GeneChip® plate arrays were scanned using GeneTitan scanner (Affymetrix, Santa Clara, Calif.).
Affymetrix scans were subject to quality control (QC) measures. These tests included a visual inspection of the distribution of raw signal intensities and an assessment of RNA degradation, relative log expression (RLE), and normalized unsealed standard error (NUSE). All sample scans that passed these QC metrics were included in the analysis.
All CEL files were subjected to GC-content-based Robust Multi-array Average (GCRMA) normalization (version 2.20.0) (Irizarry R A, et al. Nucleic Acids Res 2003; 31:e15; Li C, et al. Genome Biol 2001; 2:[…]0032). Expression levels were log (base 2) transformed.
All calculations and analyses were carried out using R (version 2.11.1) and Bioconductor computational tools (Gentleman R. Springer Science+Business Media 2005).

[1] = 100 mpk, vs Vehicle, 2 h after last dosing
[2] = 100 mpk, vs Vehicle, 7 h after last dosing
[3] = 100 mpk, vs Vehicle, 12 h after last dosing
[4] = cortex, 2 hr after single 100 mg/kg oral dose
[5] = cortex, 7 hr after single 100 mg/kg oral dose

Compound: COC(=O)/C=C/C(=O)OC [DMF, dimethyl fumarate]
- Number of genes, DMF Only / MMF Only (Cortex): 2
- Fgfbp1 (1419086_PM_at) differential expression (Cortex, 7 hr): 1.54
- Nqo1 (1423627_PM_at) differential expression (Cortex, 7 hr): 1.50
- Number of differentially expressed genes identified: Cortex (100 mpk DMF-vs-100 mpk MMF, 2 h after last dosing): 0
- Number of differentially expressed genes identified: Cortex (100 mpk DMF-vs-100 mpk MMF, 7 h after last dosing): 0
- Number of differentially expressed genes identified: Cortex (100 mpk DMF-vs-100 mpk MMF, 12 h after last dosing): 0
- Number of differentially expressed genes identified: Cortex [1]: 2
- Number of differentially expressed genes identified: Cortex [2]: 2
- Number of differentially expressed genes identified: Cortex [3]: 0
- differentially expressed genes (cortex, 100DMF-vs-100MMF, 2 h): None
- differentially expressed genes (cortex, 100DMF-vs-100MMF, 7 h): None
- differentially expressed genes (cortex, 100DMF-vs-100MMF, 12 h): None
- FC AI314604 (1442075_PM_at) (cortex, 100DMF-vs-Veh, 2 h): 1.57
- FC Ciapin1 (1448140_PM_at) (cortex, 100DMF-vs-Veh, 2 h): 1.55
- FC Fgfbp1 1419086_PM_at (cortex, 100DMF-vs-Veh, 7 h): 1.54
- FC Nqo1 (1423627_PM_at) (cortex, 100DMF-vs-Veh, 7 h): 1.50
- differentially expressed genes (cortex, 100DMF-vs-Veh, 12 h): None

Compound: COC(=O)/C=C/C(=O)O [MMF, monomethyl fumarate]
- Number of genes, DMF Only / MMF Only (Cortex): 14
- Arnt2 (1420670_PM_at) differential expression (Cortex, 2 hr): −1.66
- Atrn (1421166_PM_at) differential expression (Cortex, 2 hr): −1.62
- Chka (1442277_PM_at) differential expression (Cortex, 2 hr): −1.53
- Ednrb (1423594_PM_a_at) differential expression (Cortex, 2 hr): −1.53
- Extl3 (1421339_PM_at) differential expression (Cortex, 2 hr): −1.57
- Mkln1 (1416734_PM_at) differential expression (Cortex, 2 hr): −1.85
- Plekhm3 (1438108_PM_at) differential expression (Cortex, 2 hr): −1.50
- Ptk2 (1430827_PM_a_at) differential expression (Cortex, 2 hr): −1.53
- Ptprg (1456070_PM_at) differential expression (Cortex, 2 hr): −1.83
- Speer4b (1429992_PM_at) differential expression (Cortex, 2 hr): −1.60
- Tanc2 (1443123_PM_at) differential expression (Cortex, 2 hr): −1.72
- Top2b (1448458_PM_at) differential expression (Cortex, 2 hr): −1.51
- Trak2 (1429607_PM_at) differential expression (Cortex, 2 hr): −1.57
- Aox1 (1419435_PM_at) differential expression (Cortex, 7 hr): 1.65
- Fgfbp1 (1419086_PM_at) differential expression (Cortex, 7 hr): 1.62
- Aox1 (1419435_PM_at) differential expression (Cortex, 12 hr): 1.54
- Number of differentially expressed genes identified: Cortex [1]: 9
- Number of differentially expressed genes identified: Cortex [2]: 2
- Number of differentially expressed genes identified: Cortex [3]: 1
- FC Arnt2 (1420670_PM_at) (cortex, 100MMF-vs-Veh, 2 h): −1.66
- FC Atrn (1421166_PM_at) (cortex, 100MMF-vs-Veh, 2 h): −1.62
- FC Ednrb (1423594_PM_a_at) (cortex, 100MMF-vs-Veh, 2 h): −1.53
- FC Mkln1 (1416734_PM_at) (cortex, 100MMF-vs-Veh, 2 h): −1.85
- FC Plekhm3 (1438108_PM_at) (cortex, 100MMF-vs-Veh, 2 h): −1.50
- FC Ptk2 (1430827_PM_a_at) (cortex, 100MMF-vs-Veh, 2 h): −1.53
- FC Tanc2 (1443123_PM_at) (cortex, 100MMF-vs-Veh, 2 h): −1.72
- FC Top2b (1448458_PM_at) (cortex, 100MMF-vs-Veh, 2 h): −1.51
- FC Trak2 (1429607_PM_at) (cortex, 100MMF-vs-Veh, 2 h): −1.57
- FC Aox1 (1419435_PM_at) (cortex, 100MMF-vs-Veh, 7 h): 1.65
- FC Fgfbp1 1419086_PM_at (cortex, 100MMF-vs-Veh, 7 h): 1.62
- FC Aox1 (1419435_PM_at) (cortex, 100MMF-vs-Veh, 12 h): 1.54
- Arnt2 mRNA fold change vs vehicle [4]: −1.66
- Atrn mRNA fold change vs vehicle [4]: −1.62
- Chka mRNA fold change vs vehicle [4]: −1.53
- Ednrb mRNA fold change vs vehicle [4]: −1.53
- Extl3 mRNA fold change vs vehicle [4]: −1.57
- Mkln1 mRNA fold change vs vehicle [4]: −1.85
- Plekhm3 mRNA fold change vs vehicle [4]: −1.50
- Ptk2 mRNA fold change vs vehicle [4]: −1.53
- Ptprg mRNA fold change vs vehicle [4]: −1.83
- Speer4b mRNA fold change vs vehicle [4]: −1.60
- Tanc2 mRNA fold change vs vehicle [4]: −1.72
- Top2b mRNA fold change vs vehicle [4]: −1.51
- Trak2 mRNA fold change vs vehicle [4]: −1.57
- Aox1 mRNA fold change vs vehicle [5]: 1.65
- Fgfbp1 mRNA fold change vs vehicle [5]: 1.62
- Aox1 mRNA fold change vs vehicle (cortex, 12 hr after single 100 mg/kg oral dose): 1.54
